The values that follow come from US6867207B2, “IL-5 inhibiting 6-azauracil derivatives” (Janssen Pharmaceutica N.V., priority 1997, dated 2005).

Molecules are shown by their SMILES. Marks after values point to notes of the source that are not given here.

The first test deals with IL-5 production. Put plainly: In vitro inhibition of IL-5 production in human blood (phytohemagglutinin-stimulated whole blood, ELISA). The following applies: test dose 1×10^−5 M (values marked *), 48 hours. It counts as cell-based. A digest of the protocol:
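Heparinised blood from healthy male donors, diluted threefold in RPMI 1640, preincubated 60 min at 37° C with compound (0.02% DMSO vehicle), then stimulated with 2 μg/mL phytohemagglutinin for 48 h. Supernatant IL-5 measured by ELISA; percentage inhibition at 1×10^−6 M or 1×10^−5 M.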
A general note: ELISA stands for enzyme-linked immunosorbent assay.
Regarding `Cc1cc(O)nc(SC(c2ccc(Cl)cc2)c2ccc(-n3ncc(=O)[nH]c3=O)cc2Cl)n1` (racemic) [Compound 60], the “% inh. (percentage inhibition of IL-5 production), marked with *” value was 24* %.

Staying with this test, now noted: test dose 1×10^−6 M, 48 hours.
For `O=c1cnn(-c2ccc(C(SC3CCCCC3)c3ccc(Cl)cc3)c(Cl)c2)c(=O)[nH]1` (stereo not drawn) [Compound 90], the “% inh. (percentage inhibition of IL-5 production)” value was determined as 60%.

On to `Cn1c(C(c2ccc(Cl)cc2)c2c(Cl)cc(-n3ncc(=O)[nH]c3=O)cc2Cl)cnc1-c1ccccc1` (stereo not drawn) [Comp 430], for which the “% inh. (percentage inhibition of IL-5 production)” value is on record as 89%. Still for that read-out and setting: with `O=c1cnn(-c2cc(Cl)c(C(Sc3nnc(-c4ccccc4)o3)c3ccc(Cl)c(C(F)(F)F)c3)c(Cl)c2)c(=O)[nH]1` (stereo not drawn) [Compound 391] the figure was 97%; with `O=c1cnn(-c2cc(Cl)c(C(c3ccc(Cl)cc3)c3nc(-c4ccccc4)c(CNC(=S)Nc4ccccc4)s3)c(Cl)c2)c(=O)[nH]1` (racemic) [Compound 331, (±)-N-[[2-[(4-chlorophenyl)[2,6-dichloro-(4,5-dihydro-3,5-dioxo-1,2,4-triazin-2(3H)-yl)phenyl]methyl]4-phenyl-5-thiazolyl]methyl]-N′-phenyl-thiourea], 95%; with `CCOc1ccc2nc(SC(c3ccc(Cl)c(C(F)(F)F)c3)c3c(Cl)cc(-n4ncc(=O)[nH]c4=O)cc3Cl)sc2c1` (stereo not drawn) [Compound 394], 93%. On the same count and under the same terms, with `Nc1ccnc(SC(c2ccc(Cl)cc2)c2c(Cl)cc(-n3ncc(=O)[nH]c3=O)cc2Cl)n1` (racemic) [Compound 348] the figure was 83%; with `Cc1sc(SC(c2ccc(Cl)c(C(F)(F)F)c2)c2c(Cl)cc(-n3ncc(=O)[nH]c3=O)cc2Cl)nc1-c1ccccc1` (racemic) [Compound 405], 80%; with `O=c1cnn(-c2ccc(C(c3ccc(Cl)cc3)c3nnc(-c4ccccc4)o3)c(Cl)c2)c(=O)[nH]1` (racemic) [Comp 101], 66%.

For the molecule `Cc1ccoc1-c1nnc(C(c2ccc(Cl)cc2)c2c(Cl)cc(-n3ncc(=O)[nH]c3=O)cc2Cl)o1` (racemic) [Compound 207], the “% inh. (percentage inhibition of IL-5 production)” value was 94%. The same measure, in the same setting: with `CC(=O)Nc1ccc(SC(c2ccc(Cl)c(C(F)(F)F)c2)c2c(Cl)cc(-n3ncc(=O)[nH]c3=O)cc2Cl)cc1` (racemic) [Compound 398] the figure was 96%; with `O=c1cnn(-c2cc(Cl)c(C(Sc3ccccn3)c3ccc(Cl)c(C(F)(F)F)c3)c(Cl)c2)c(=O)[nH]1` (stereo not drawn) [Compound 378], 91%. In the case of `Cc1nnc(SC(c2ccc(Cl)cc2)c2ccc(-n3ncc(=O)[nH]c3=O)cc2Cl)[nH]c1=O` (stereo not drawn) [Compound 85], the “% inh. (percentage inhibition of IL-5 production)” value is 38%.

Turning to `CN(C)CCN(C)Cc1sc(C(c2ccc(Cl)cc2)c2c(Cl)cc(-n3ncc(=O)[nH]c3=O)cc2Cl)nc1-c1ccccc1` (racemic) [Comp 311], the “% inh. (percentage inhibition of IL-5 production)” value was found to be 64%. In the case of `O=c1cnn(-c2cc(Cl)c(C(Sc3nc4ccc([N+](=O)[O-])cc4s3)c3ccc(Cl)c(C(F)(F)F)c3)c(Cl)c2)c(=O)[nH]1` (stereo not drawn) [Compound 388], the “% inh. (percentage inhibition of IL-5 production)” value worked out at 90%.

With `O.O=c1cnn(-c2cc(Cl)c(C(c3ccc(Cl)cc3)c3nnc(-c4ccccc4Cl)o3)c(Cl)c2)c(=O)[nH]1` (racemic) [Compound 163], the “% inh. (percentage inhibition of IL-5 production)” value is 90%. For `O=c1cnn(-c2cc(Cl)c(C(c3ccc(Cl)cc3)c3nnc(CCc4ccccc4)o3)c(Cl)c2)c(=O)[nH]1` (racemic) [Compound 172], the “% inh. (percentage inhibition of IL-5 production)” value worked out at 17%.

For `O=c1cnn(-c2ccc(C(c3ccc(Cl)cc3)c3nc4sccn4c3-c3ccccc3)c(Cl)c2)c(=O)[nH]1` (stereo not drawn) [Comp 432], the “% inh. (percentage inhibition of IL-5 production)” value came out at 82%.

`Cc1cc(-n2ncc(=O)[nH]c2=O)cc(C)c1C(c1ccc(Cl)c(Cl)c1)c1nc(-c2ccccc2)cs1` (racemic) [Comp 270]: the “% inh. (percentage inhibition of IL-5 production)” value amounted to 86%.

For `CC(c1ccc(Cl)c(C(F)(F)F)c1)(c1nc(-c2ccccc2)c(-c2ccccc2)s1)c1c(Cl)cc(-n2ncc(=O)[nH]c2=O)cc1Cl` (racemic) [Comp 237], the “% inh. (percentage inhibition of IL-5 production)” value amounted to 82%. For `Cc1nc(-c2ccccc2)c(C(c2ccc(Cl)cc2)c2ccc(-n3ncc(=O)[nH]c3=O)cc2)s1` (racemic) [Compound 146], the “% inh. (percentage inhibition of IL-5 production)” value turned out to be 83%. Consider `O=c1cnn(-c2cc(Cl)c(C(c3ccc(Cl)cc3)c3nnc(-c4cccc(O)c4)o3)c(Cl)c2)c(=O)[nH]1` (racemic) [Compound 200], for which the “% inh. (percentage inhibition of IL-5 production)” value was 43%. Still for that read-out and setting: with `Cc1cc(-n2ncc(=O)[nH]c2=O)cc(C)c1C(c1ccc(Cl)c(Cl)c1)c1nc(-c2ccccc2)c(C)s1` (racemic) [Comp 271] the figure was 88%. In the case of `O=c1cnn(-c2cc(Cl)c(C(Sc3nc4cccnc4s3)c3ccc(Cl)c(C(F)(F)F)c3)c(Cl)c2)c(=O)[nH]1` (stereo not drawn) [Compound 382], the “% inh. (percentage inhibition of IL-5 production)” value is 95%. With `Cc1sc(C(C)(c2ccc(Cl)c(Cl)c2)c2c(Cl)cc(-n3ncc(=O)[nH]c3=O)cc2Cl)nc1-c1ccccc1` (racemic) [Comp 233], the “% inh. (percentage inhibition of IL-5 production)” value turned out to be 84%.

Regarding `CC(c1ccc(Cl)cc1)(c1nc(-c2ccccc2)c(-c2ccccc2)s1)c1c(Cl)cc(-n2ncc(=O)[nH]c2=O)cc1Cl` (racemic) [Comp 18], the “% inh. (percentage inhibition of IL-5 production)” value stood at 88%.

Take `O=c1cnn(-c2ccc(C(O)(c3ccc(Cl)cc3)c3cccnc3)c(Cl)c2)c(=O)[nH]1` (stereo not drawn) [Comp 117]: the “% inh. (percentage inhibition of IL-5 production)” value is 34%. Regarding `O=c1cnn(-c2cc(Cl)c(C(c3ccc(Cl)cc3)c3nc(-c4cccc(F)c4)cs3)c(Cl)c2)c(=O)[nH]1` (single isomer, unassigned) [Comp 318], the “% inh. (percentage inhibition of IL-5 production)” value was found to be 81%. As to `O=c1cnn(-c2cc(Cl)c(C(c3ccc(Cl)cc3)c3nc(-c4cccc(Cl)c4Cl)cs3)c(Cl)c2)c(=O)[nH]1` (racemic) [Comp 252], the “% inh. (percentage inhibition of IL-5 production)” value is reported as 80%. The same measure, in the same setting: with `Cc1nc(-c2ccc(Cl)cc2)c(C(c2ccc(Cl)cc2)c2ccc(-n3ncc(=O)[nH]c3=O)cc2Cl)s1` (racemic) [Compound 149] the figure was 89%; with `O=c1cnn(-c2ccc(C(Sc3ccccn3)c3ccc(Cl)c(C(F)(F)F)c3)c(Cl)c2)c(=O)[nH]1` (stereo not drawn) [Compound 86], 84%. Still for that read-out and setting: with `CN1CCC(c2nnc(C(c3ccc(Cl)cc3)c3c(Cl)cc(-n4ncc(=O)[nH]c4=O)cc3Cl)o2)CC1` (racemic) [Compound 195] the figure was 7%; with `CN(C)c1ccc(-c2nnc(C(c3ccc(Cl)cc3)c3c(Cl)cc(-n4ncc(=O)[nH]c4=O)cc3Cl)o2)cc1` (racemic) [Compound 180], 54%. For the molecule `O=c1cnn(-c2cc(Cl)c(C(c3ccc(Cl)cc3)c3ncc(-c4ccccc4)s3)c(Cl)c2)c(=O)[nH]1` (racemic) [Comp 267], the “% inh. (percentage inhibition of IL-5 production)” value came to 81%. On to `Cc1sc(C(c2ccc(Cl)c(C(F)(F)F)c2)c2c(Cl)cc(-n3ncc(=O)[nH]c3=O)cc2Cl)nc1-c1ccccc1` (racemic) [Comp 246], for which the “% inh. (percentage inhibition of IL-5 production)” value stood at 94%. Take `CCOC(=O)CSC(c1ccc(Cl)cc1)c1ccc(-n2ncc(=O)[nH]c2=O)cc1Cl` (racemic) [Compound 76]: the “% inh. (percentage inhibition of IL-5 production)” value is given as 2%. On the same count and under the same terms, with `Cc1sc(NC(c2ccc(Cl)cc2)c2ccc(-n3ncc(=O)[nH]c3=O)cc2Cl)nc1-c1ccccc1` (racemic) [Compound 412] the figure was 16%; with `O=c1cnn(-c2ccc(C(Sc3nc[nH]n3)c3ccc(Cl)cc3)c(Cl)c2)c(=O)[nH]1` (racemic) [Compound 55], 26%; with `O=c1cnn(-c2cc(Cl)c(C(c3ccc(Cl)cc3)c3nc(-c4ccccc4)c(CNS(=O)(=O)Cc4ccccc4)s3)c(Cl)c2)c(=O)[nH]1` (racemic) [Comp 336], 88%.

Turning to `CCOC(=O)c1sc(C(c2ccc(Cl)cc2)c2c(Cl)cc(-n3ncc(=O)[nH]c3=O)cc2Cl)nc1-c1ccccc1` (racemic) [Comp 29], the “% inh. (percentage inhibition of IL-5 production)” value amounted to 95%. Regarding `Cc1sc(C(c2ccc(Cl)cc2)c2c(Cl)cc(-n3ncc(=O)[nH]c3=O)cc2Cl)nc1-c1ccccc1F` (racemic) [Comp 259], the “% inh. (percentage inhibition of IL-5 production)” value was found to be 95%.

The same test, now with this note: test dose 1×10^−6 M, 48 hours, read-out: % inh. (percentage inhibition of IL-5 production).
The inhibition is the share of the control response that was lost under treatment. As to `Cc1nc(C(c2ccc(Cl)cc2)c2ccc(-n3ncc(=O)[nH]c3=O)cc2Cl)no1` (racemic) [Compound 126, (±)-2-[3-chloro-4-[(4-chlorophenyl)(5-methyl-1,2,4-oxadiazol-3-yl)methyl]phenyl]-1,2,4-triazine-3,5(2H,4H)-dione], the inhibition at 1 µM worked out at 40%. For the molecule `[N-]=[N+]=Nc1cccc(-c2nnc(C(c3ccc(Cl)cc3)c3c(Cl)cc(-n4ncc(=O)[nH]c4=O)cc3Cl)o2)c1` (racemic) [Compound 194, (±)-2-[4-[[5-(3-azidophenyl)-1,3,4-oxadiazol-2-yl](4-chlorophenyl)methyl]-3,5-dichlorophenyl]-1,2,4-triazine-3,5(2H,4H)-dione], the inhibition at 1 µM was 83%. Still for that read-out and setting: with `O=c1cnn(-c2ccc(C(NCCO)c3ccc(Cl)cc3)c(Cl)c2)c(=O)[nH]1` (racemic) [Compound 51, (±)-2-[3-chloro-4-[(4-chlorophenyl)[(2-hydroxyethyl)amino]methyl]phenyl]-1,2,4-triazin-3,5(2H,4H)-dione] the figure was 10%. Turning to `O=c1cnn(-c2cc(Cl)c(C(Nc3ncccn3)c3ccc(Cl)cc3)c(Cl)c2)c(=O)[nH]1` (racemic) [Compound 413, (±)-2-[3,5-dichloro-4-[(4-chlorophenyl)[(2-pyrimidinyl)amino]-methyl]phenyl]-1,2,4-triazine-3,5(2H,4H)-dione], the inhibition at 1 µM came to 59%.
